# Test results: US9840513B2 (AbbVie S.à.r.l., priority 2015, dated 2017)
# pEC50: −log10 of the molar value.
# Target: T1, F508delCFTR cell surface expression in CFBE41o-F508delCFTR-HRP cells (Homo sapiens, UniProt P13569, DEL508-508)
# T1 construct: fused on or other part: Horseradish peroxidase (HRP) reporter inserted in the fourth exofacial (extracellular) loop of CFTR; expression is doxycycline-inducible
# Experiment: Cell Surface Expression-Horse Radish Peroxidase (CSE-HRP) Assay
# Type: cell-based
# Conditions: for pEC50: CFBE41o-F508delCFTR-HRP cells, 18-24 hours at 33° C., 8-point curve, highest concentration 20 μM; for Maximum % activity (%): maximum at any tested concentration, normalized to on-plate positive control (3 μM)
# Description: Cell Surface Expression-Horse Radish Peroxidase (CSE-HRP) Assay:
# A cellular assay for measuring the F508delCFTR cell surface expression after correction with test compounds was developed in human lung derived epithelial cell line (CFBE41o-) (Veit G et al, (2012) Mol Biol Cell. 23(21): 4188-4202). This was achieved by expressing the F508delCFTR mutation along with a horseradish peroxidase (HRP) in the fourth exofacial loop and then measuring the HRP activity using luminescence readout from these cells, CFBE41o-F508delCFTR-HRP, that were incubated overnight with the test corrector compounds. Briefly, for this primary assay, the CFBE41o-F508delCFTR-HRP cells were plated in 384-well plates (Greiner Bio-one; Cat 781080) at 4,000 cells/well along with 0.5 μg/mL doxycycline to induce the F508delCFTR-HRP expression and further incubated at 37° C., 5% CO2 for 72 hours. The test compounds were then added at the required concentrations and further incubated for 18-24 hours at 33° C. The highest concentration tested was 20 μM with an 8-point concentration response curve using a 3-fold dilution. Three replicate plates were run to determine one EC50. All plates contained negative controls (dimethyl sulfoxide, DMSO) and positive controls (3 μM of 3-[(2R,4R)-4-({[1-(2,2-difluoro-1,3-benzodioxol-5-yl)cyclopropyl]carbonyl}amino)-7-methoxy-3,4-dihydro-2H-chromen-2-yl]benzoic acid) as well as on-plate concentration response of the positive control. Post incubation, the plates were washed 5× times with Dulbecco's phosphate buffered saline (DPBS), followed by the addition of the HRP substrate, luminol (50 μL), and measuring the HRP activity using luminescence readout on EnVision® Multilabel Plate Reader (Perkin Elmer; product number 2104-0010). The raw counts from the experiment are analyzed using Accelrys® Assay Explorer v3.3.
# Z′ greater than 0.5 was used as passing quality control criteria for the plates.
# The Z′ is defined as: 1−[3*SDPositive Control+3*SDNegative Control/Absolute(MeanPositive Control−MeanNegative Control)] wherein “SD” is standard deviation.
# The % activity measured at each of the 8 test concentrations of the test compound was normalized to the on-plate positive control using the following formula: % activity=[(test compound response DMSO response)/(positive control response DMSO response)]*100
# The maximum % activity achieved for the test compound at any tested concentration is presented in Table 1 along with the EC50 calculated using the following general sigmoidal curve with variable Hill slope equation (described as Model 42 in the Accelrys® Assay Explorer v3.3 software): y=(a−d)/(1+(x/c)^b)+d
# General sigmoidal curve with concentration, response, top, bottom, EC50 and Hill slope.
# This model describes a sigmoidal curve with an adjustable baseline, a. The equation can be used to fit curves where response is either increasing or decreasing with respect to the independent variable, “x”.
# “x” is a concentration of drug under test.
# “a” is the maximum response, and “d” is the minimum response
# “c” is the inflection point (EC50) for the curve. That is, “y” is halfway between the lower and upper asymptotes when x=c.
# “b” is the slope-factor or Hill coefficient. The sign of b is positive when the response increases with increasing dose and is negative when the response decreases with increasing dose (inhibition).
# T1 sequence (P13569 with tags, fused parts or gaps DEL508-508 limits assumed): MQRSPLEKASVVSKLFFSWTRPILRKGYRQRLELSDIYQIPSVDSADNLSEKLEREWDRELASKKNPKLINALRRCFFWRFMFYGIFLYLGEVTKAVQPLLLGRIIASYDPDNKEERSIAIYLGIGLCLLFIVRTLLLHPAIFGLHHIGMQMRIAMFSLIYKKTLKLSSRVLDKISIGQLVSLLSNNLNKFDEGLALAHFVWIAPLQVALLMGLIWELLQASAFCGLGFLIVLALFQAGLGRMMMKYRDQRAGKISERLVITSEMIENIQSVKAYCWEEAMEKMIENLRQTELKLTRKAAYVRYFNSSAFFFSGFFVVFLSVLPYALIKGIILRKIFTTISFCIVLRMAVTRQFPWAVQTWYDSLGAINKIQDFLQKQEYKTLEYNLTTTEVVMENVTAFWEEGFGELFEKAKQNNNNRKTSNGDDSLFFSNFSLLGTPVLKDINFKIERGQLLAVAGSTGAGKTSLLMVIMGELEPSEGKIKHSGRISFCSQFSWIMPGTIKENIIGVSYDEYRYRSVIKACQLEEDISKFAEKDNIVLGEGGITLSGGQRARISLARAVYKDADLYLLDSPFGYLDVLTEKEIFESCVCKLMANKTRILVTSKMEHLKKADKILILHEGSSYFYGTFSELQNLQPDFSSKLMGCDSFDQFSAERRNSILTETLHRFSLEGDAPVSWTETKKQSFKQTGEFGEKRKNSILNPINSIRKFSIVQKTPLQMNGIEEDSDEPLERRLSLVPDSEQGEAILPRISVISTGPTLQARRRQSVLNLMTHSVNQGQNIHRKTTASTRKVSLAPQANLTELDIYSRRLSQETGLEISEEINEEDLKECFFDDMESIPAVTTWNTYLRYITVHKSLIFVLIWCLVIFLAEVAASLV
# T1 sequence (P13569 919-1480 limits assumed, stated change not applied): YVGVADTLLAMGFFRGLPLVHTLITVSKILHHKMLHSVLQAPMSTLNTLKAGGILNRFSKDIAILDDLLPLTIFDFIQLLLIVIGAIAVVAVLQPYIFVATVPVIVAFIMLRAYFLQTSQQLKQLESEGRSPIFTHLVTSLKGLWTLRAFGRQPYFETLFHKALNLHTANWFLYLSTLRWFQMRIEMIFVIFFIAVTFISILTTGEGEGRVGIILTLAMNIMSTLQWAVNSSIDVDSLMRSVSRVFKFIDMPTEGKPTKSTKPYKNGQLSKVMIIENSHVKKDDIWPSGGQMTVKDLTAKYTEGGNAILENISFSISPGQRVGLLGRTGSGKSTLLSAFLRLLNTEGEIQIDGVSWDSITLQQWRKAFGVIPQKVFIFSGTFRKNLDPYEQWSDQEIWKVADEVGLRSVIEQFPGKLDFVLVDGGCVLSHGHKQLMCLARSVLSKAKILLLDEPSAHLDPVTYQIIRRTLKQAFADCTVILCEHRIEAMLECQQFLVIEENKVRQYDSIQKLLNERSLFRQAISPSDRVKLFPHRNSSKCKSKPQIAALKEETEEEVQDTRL
compound,measurement,value
"1-(6-{[(7R)-2,2-difluoro-7-methyl-6,7-dihydro-2H-furo[2,3-f][1,3]benzodioxole-7-carbonyl]amino}pyridin-2-yl)-4,4-dimethylpyrrolidine-3-carboxylic acid [Example 115]",pEC50,6.00
same,Maximum % activity (%),147%
"4-[(2R,4S,6R)-4-{[(7R)-2,2-difluoro-7-methyl-6,7-dihydro-2H-furo[2,3-f][1,3]benzodioxole-7-carbonyl]amino}-6-methyloxan-2-yl]benzoic acid and 4-[(2S,4R,6S)-4-{[(7R)-2,2-difluoro-7-methyl-6,7-dihydro-2H-furo[2,3-f][1,3]benzodioxole-7-carbonyl]amino}-6-methyloxan-2-yl]benzoic acid [Example 43]",pEC50,5.60
same,Maximum % activity (%),93%
"4-[(2R,4S,6S)-4-{[(7R)-2,2-difluoro-7-methyl-6,7-dihydro-2H-furo[2,3-f][1,3]benzodioxole-7-carbonyl]amino}-6-phenyloxan-2-yl]benzoic acid and 4-[(2S,4R,6R)-4-{[(7R)-2,2-difluoro-7-methyl-6,7-dihydro-2H-furo[2,3-f][1,3]benzodioxole-7-carbonyl]amino}-6-phenyloxan-2-yl]benzoic acid [Example 34]",pEC50,6.32
same,Maximum % activity (%),109%
"Cc1ccc(NC(=O)[C@@]2(C)CCc3c2ccc2c3OCO2)cc1-c1cccc(C(=O)O)c1 (single isomer, unassigned) [Example 38]",pEC50,5.34
same,Maximum % activity (%),22%
"C[C@]1(C(=O)N[C@H]2C[C@@H](c3ccc(C(=O)O)cc3)O[C@@H](c3ccccc3)C2)COc2cc3c(cc21)OC(F)(F)O3 (single isomer, unassigned) [Example 45]",pEC50,6.04
same,Maximum % activity (%),111%
"O=C(O)c1ccc([C@@H]2C[C@H](NC(=O)C3(c4ccc5c(c4)OC(F)(F)O5)CC3)c3ccccc3N2)cc1 (single isomer, unassigned) [Example 48]",pEC50,5.56
same,Maximum % activity (%),27%
"COc1ccc2c(c1)O[C@@H](c1ccc(C(=O)O)cc1)C[C@H]2NC(=O)[C@]1(C)CCc2cc3c(cc21)OC(F)(F)O3 (single isomer, unassigned) [Example 49]",pEC50,6.68
same,Maximum % activity (%),116%
"COc1ccc2c(c1)O[C@@H](c1ccc(C(=O)O)cc1)C[C@H]2NC(=O)[C@@]1(C)CCc2cc3c(cc21)OC(F)(F)O3 (single isomer, unassigned) [Example 50]",pEC50,5.78
same,Maximum % activity (%),75%
"COc1ccc2c(c1)O[C@@H](c1cccc(C(=O)O)c1)C[C@H]2NC(=O)[C@]1(C)CCc2cc3c(cc21)OC(F)(F)O3 (single isomer, unassigned) [Example 56]",pEC50,6.06
same,Maximum % activity (%),107%
"COc1ccc2c(c1)O[C@@H](c1cccc(C(=O)O)c1)C[C@H]2NC(=O)[C@@]1(C)CCc2cc3c(cc21)OC(F)(F)O3 (single isomer, unassigned) [Example 57]",pEC50,5.75
same,Maximum % activity (%),99%
"C[C@@]1(C(=O)N[C@@H]2C[C@H](c3ccc(C(=O)O)cc3)Oc3ccccc32)CCc2cc3c(cc21)OC(F)(F)O3 (single isomer, unassigned) [Example 58]",pEC50,6.38
same,Maximum % activity (%),104%
"CC(C)(CO)[C@H]1Cc2cc(NC(=O)[C@@]3(C)COc4cc5c(cc43)OC(F)(F)O5)c(F)cc2N1C[C@@H](O)CO (single isomer, unassigned) [Example 140]",pEC50,5.89
same,Maximum % activity (%),49%
"CC(C)(CO)[C@@H]1Cc2cc(NC(=O)[C@@]3(C)COc4cc5c(cc43)OC(F)(F)O5)c(F)cc2N1C[C@@H](O)CO (single isomer, unassigned) [Example 141]",pEC50,6.02
same,Maximum % activity (%),39%
"COc1ccc2c(c1)O[C@@H](c1cnc([C@@H](O)CO)cn1)C[C@H]2NC(=O)[C@@]1(C)COc2cc3c(cc21)OC(F)(F)O3 (single isomer, unassigned) [Example 191]",pEC50,7.15
same,Maximum % activity (%),123%
"COc1ccc2c(c1)O[C@H](c1ccc(OCc3ccccc3)nn1)C[C@H]2NC(=O)[C@@]1(C)COc2cc3c(cc21)OC(F)(F)O3 (single isomer, unassigned) [Example 272]",pEC50,6.59
same,Maximum % activity (%),108%
"COc1ccc2c(c1)O[C@@H](c1ccc(OCc3ccccc3)nn1)C[C@H]2NC(=O)[C@@]1(C)COc2cc3c(cc21)OC(F)(F)O3 (single isomer, unassigned) [Example 273]",pEC50,6.92
same,Maximum % activity (%),92%
"Cc1ccc(NC(=O)C2(C)COc3cc4c(cc32)OC(F)(F)O4)nc1-c1cccc(C(=O)OC(C)(C)C)c1 (centres unmarked) [Example 1, tert-butyl 3-{6-[(2,2-difluoro-7-methyl-6,7-dihydro-2H-furo[2,3-f][1,3]benzodioxole-7-carbonyl)amino]-3-methylpyridin-2-yl}benzoate]",pEC50,5.69
same,Maximum % activity (%),100%
"Cc1ccc(NC(=O)[C@]2(C)COc3cc4c(cc32)OC(F)(F)O4)nc1-c1cccc(C(=O)OC(C)(C)C)c1 [Example 3, tert-butyl 3-(6-{[(7S)-2,2-difluoro-7-methyl-6,7-dihydro-2H-furo[2,3-f][1,3]benzodioxole-7-carbonyl]amino}-3-methylpyridin-2-yl)benzoate]",pEC50,< 4.70
same,Maximum % activity (%),3%
"Cc1ccc(NC(=O)[C@]2(C)COc3cc4c(cc32)OC(F)(F)O4)nc1-c1cccc(C(=O)O)c1 [Example 4, 3-(6-{[(7S)-2,2-difluoro-7-methyl-6,7-dihydro-2H-furo[2,3-f][1,3]benzodioxole-7-carbonyl]amino}-3-methylpyridin-2-yl)benzoic acid]",pEC50,< 4.70
same,Maximum % activity (%),12%
"Cc1ccc(NC(=O)[C@@]2(C)COc3cc4c(cc32)OC(F)(F)O4)nc1-c1cccc(C(=O)OC(C)(C)C)c1 [Example 5, tert-butyl 3-(6-{[(7R)-2,2-difluoro-7-methyl-6,7-dihydro-2H-furo[2,3-f][1,3]benzodioxole-7-carbonyl]amino}-3-methylpyridin-2-yl)benzoate]",pEC50,5.49
same,Maximum % activity (%),137%
"COC(=O)[C@@H]1CCN(c2cccc(NC(=O)C3(C)COc4cc5c(cc43)OC(F)(F)O5)n2)C1 (stereo partly drawn) [Example 7, methyl (3R)-1-{6-[(2,2-difluoro-7-methyl-6,7-dihydro-2H-furo[2,3-f][1,3]benzodioxole-7-carbonyl)amino]pyridin-2-yl}pyrrolidine-3-carboxylate]",pEC50,5.42
same,Maximum % activity (%),124%
"CC1(C(=O)Nc2cccc(N3CC[C@@H](C(=O)O)C3)n2)COc2cc3c(cc21)OC(F)(F)O3 (stereo partly drawn) [Example 8, (3R)-1-{6-[(2,2-difluoro-7-methyl-6,7-dihydro-2H-furo[2,3-f][1,3]benzodioxole-7-carbonyl)amino]pyridin-2-yl}pyrrolidine-3-carboxylic acid]",pEC50,5.83
same,Maximum % activity (%),126%
"C[C@]1(C(=O)Nc2cccc(N3CC[C@@H](C(=O)O)C3)n2)COc2cc3c(cc21)OC(F)(F)O3 [Example 9, (3R)-1-(6-{[(7R)-2,2-difluoro-7-methyl-6,7-dihydro-2H-furo[2,3-f][1,3]benzodioxole-7-carbonyl]amino}pyridin-2-yl)pyrrolidine-3-carboxylic acid]",pEC50,5.99
same,Maximum % activity (%),135%
"COC(=O)c1cccc([C@H]2C[C@@H](NC(=O)C3(C)COc4cc5c(cc43)OC(F)(F)O5)c3ccc(OC)cc3O2)c1 (stereo partly drawn) [Example 10, methyl 3-{(2R,4R)-4-[(2,2-difluoro-7-methyl-6,7-dihydro-2H-furo[2,3-f][1,3]benzodioxole-7-carbonyl)amino]-7-methoxy-3,4-dihydro-2H-1-benzopyran-2-yl}benzoate]",pEC50,6.39
same,Maximum % activity (%),121%
COC(=O)c1cccc([C@H]2C[C@@H](NC(=O)[C@]3(C)COc4cc5c(cc43)OC(F)(F)O5)c3ccc(OC)cc3O2)c1 [Example 12],pEC50,< 4.70
same,Maximum % activity (%),14%
